Laboratory results reported in paper PMC11923649, “Novel C-2 Aromatic Heterocycle-Substituted Triterpenoids Inhibit Hedgehog Signaling in GLI1 Overexpression Cancer Cells” (ACS Omega, 2025).

Columns and labels:
HCT116 p53–/– = test: MTS cytotoxicity assay, 72 h, HCT116 p53–/–; format: cell-based; conditions: Homo sapiens, HCT-116, 72 h
Experimental: (§1) Based on the preliminary results and tests of a larger library of known triterpenoids, a small set of 2-substituted lupane and 18α-oleanane derivatives was designed and synthesized. As the first step, the cytotoxic activity of the synthesized derivatives was assessed using an MTS assay following 72 h of treatment (Table 1). Selected cell lines A549 (lung adenocarcinoma) and DU-145 (prostate cancer) are both dependent on Hh signaling. In addition, K562 (chronic myelogenous leukemia) was included as a cell line sensitive to Hh inhibitors[32] and a type of hematological malignancy with active Hh signaling.[33] MRC-5 lung fibroblasts and BJ human skin fibroblasts cell lines were used to evaluate the toxicity against nontumor cells. Compounds were also tested using the standard panel of other cancer cell lines, as described in our earlier work (Table 1).[27]
(§2) The human prostate tumor-derived cell line DU145 was obtained from ATCC (American Type Culture Collection) and cultured in RPMI 1640 (Roswell Park Memorial Institute) medium supplemented with 10% (v/v) fetal bovine serum (FBS). Human prostate tumor-derived LNCaP cells were obtained from ATCC and cultured in RPMI 1640 medium supplemented with 10% FBS. The human nonsmall cell lung carcinoma (NSCLC)-derived cell line HOP-62 was obtained from the DSMZ (German Collection of Microorganisms and Cell Cultures) and cultured in RPMI 1640 medium supplemented with 10% FBS. The human nonsmall cell lung carcinoma-derived cell line NCI-H322 was obtained from ECACC (European Collection of Authenticated Cell Cultures) and cultured in RPMI 1640 medium supplemented with 10% FBS. The human nonsmall cell lung carcinoma-derived cell line NCI-H522 was obtained from ATCC and cultured in RPMI 1640 medium supplemented with 10% FBS. The human lung tumor-derived cell line A549 was obtained from ATCC and cultured in Dulbecco’s Modified Eagle’s Medium (DMEM) supplemented with 10% FBS. The human medulloblastoma-derived cell line DAOY was obtained from ATCC and cultured in Eagle’s Minimum Essential Medium (EMEM) supplemented with 10% FBS. The human glioblastoma-derived cell line T98G was obtained from ATCC and cultured in EMEM medium supplemented with 10% FBS, 1 mmol/L sodium pyruvate, and 1 mmol/L nonessential amino acid mixture. All the above-mentioned cell lines were cultured at 37 °C in an atmosphere of 5% CO2 with 95% humidity. The cytotoxicity MTS assays were performed using MTS (3-(4,5-dimethylthiazol-2-yl)-5-(3-carboxymethoxyphenyl)-2-(4-sulfophenyl)-2H-tetrazolium) tetrazolium salt. Briefly, cells were seeded in a 384-well transparent plate in a volume of 25 μL and a concentration of 15,000 cells/mL (DU145, LNCaP, HOP-62, A549, DAOY, T98G) or 30,000 cells/mL (NCI-H322, NCI-H522). The next day, cells were exposed to compounds in a concentration range of 50–0.0975 μmol/L (dilution factor 2) and cultured in the presence of the compounds for 72 h. After 72 h, 5 μL of MTS/phenazine methosulfate solution was pipetted into each well and incubation continued for 1–4 h. Finally, the absorbance at 490 nm was measured using an EnVision multifunctional modular reader (PerkinElmer). The IC50 value was determined using Dotmatics software.

CEM-DNR = test: MTS cytotoxicity assay, 72 h, CEM-DNR; format: cell-based; conditions: Homo sapiens
Experimental: as §1, with “1).[27] […]” for “1).[27]”

CCRF-CEM = test: MTS cytotoxicity assay, 72 h, CCRF-CEM; format: cell-based; conditions: for IC50: Homo sapiens, CCRF-CEM, 72 h, MTS
Experimental: as §1, §2

K562-TAX = test: MTS cytotoxicity assay, 72 h, K562-TAX; format: cell-based
Experimental: as §1, §2

[1] = system: K562 (chronic myelogenous leukemia); test: MTS cytotoxicity assay, 72 h, K562; format: cell-based; conditions: Homo sapiens
Experimental: as §1, §2

DU-145 (prostate cancer) = test: MTS cytotoxicity assay, 72 h, DU-145; format: cell-based, human; conditions: Homo sapiens, DU-145, 72 h
Experimental: as §1, §2

MRC-5 lung fibroblasts = test: MTS cytotoxicity assay, 72 h, MRC-5 fibroblasts; format: cell-based, human; conditions: normal fibroblasts; for IC50: Homo sapiens, MRC5, 72 h
Experimental: as §1, §2

U2OS = test: MTS cytotoxicity assay, 72 h, U2OS; format: cell-based; conditions: Homo sapiens
Experimental: as §1, §2

HCT 116 = test: MTS cytotoxicity assay, 72 h, HCT 116; format: cell-based; conditions: Homo sapiens, HCT-116, 72 h
Experimental: as §1, §2

[2] = system: BJ human skin fibroblasts; test: MTS cytotoxicity assay, 72 h, BJ fibroblasts; format: cell-based; conditions: normal fibroblasts; for IC50: Homo sapiens, Skin fibroblast
Experimental: as §1, §2

[3] = system: A549 (lung adenocarcinoma); test: MTS cytotoxicity assay, 72 h, A549; format: cell-based; conditions: Homo sapiens, A549, 72 h
Experimental: as §1, §2

[4] = IC50 of CCRF-CEM line vs average of both fibroblasts (BJ and MRC-5), Table 1
[5] = CCRF-CEM vs average of BJ and MRC-5, full Table S1

| Structure (SMILES) | IC50 (HCT116 p53–/–; full Table S1) [µM] | IC50 (CEM-DNR; full Table S1) [µM] | IC50 (CCRF-CEM; full Table S1) [µM] | IC50 (DU-145 (prostate cancer); full Table S1) [µM] | IC50 (U2OS; full Table S1) [µM] | IC50 (HCT 116; full Table S1) [µM] | IC50 ([3]; full Table S1) [µM] | IC50 (K562-TAX; full Table S1) [µM] | IC50 (MRC-5 lung fibroblasts; full Table S1) [µM] | SI (selectivity index) (CCRF-CEM; [5]) | IC50 ([1]; full Table S1) [µM] | IC50 ([2]; full Table S1) [µM] | further results |
| --- | --- | --- | --- | --- | --- | --- | --- | --- | --- | --- | --- | --- | --- |
| C=C(C)[C@@H]1CC[C@]2(C(=O)O)CC[C@]3(C)C(CCC4[C@@]5(C)C=C(c6cccnc6)C(=O)C(C)(C)C5CC[C@]43C)C12 (stereo partly drawn) [Compound 11g, 2-(Pyridin-3-yl)-3-oxolupa-1,20(29)-dien-28-oic acid] | 39.6 | 20.5 | 18.1 | 11.1 | 44.4 | 33.5 | 34.8 | – | – | – | – | – | IC50 (HCT116 p53–/–; Table 1): 40 µM; IC50 (CEM-DNR; Table 1): 21 µM; IC50 (CCRF-CEM; Table 1): 18 µM; SI (selectivity index) (CCRF-CEM; [4]): >2.8; IC50 (K562-TAX; Table 1): 20 µM; IC50 ([1]; Table 1): > 50 µM; IC50 (DU-145 (prostate cancer); Table 1): 11 µM; IC50 (MRC-5 lung fibroblasts; Table 1): > 50 µM; IC50 MRC-5 (MRC-5 lung fibroblasts; Table 1): below the detection limit; IC50 (U2OS; Table 1): 44 µM; IC50 (HCT 116; Table 1): 34 µM; IC50 ([2]; Table 1): > 50 µM; IC50 BJ ([2]; Table 1): below the detection limit; IC50 ([3]; Table 1): 35 µM |
| C=C(C)[C@@H]1CC[C@]2(C(=O)O)CC[C@]3(C)C(CCC4[C@@]5(C)C=C(c6ccc7c(c6)OCCO7)C(=O)C(C)(C)C5CC[C@]43C)C12 (stereo partly drawn) [Compound 11j, 2-(1,4-Benzodioxan)-3-oxolupa-1,20(29)-dien-28-oic acid] | 20.9 | – | – | – | 21.9 | 22.1 | 13.5 | 16.5 | 27.8 | – | – | – | IC50 (HCT116 p53–/–; Table 1): 21 µM; IC50 (CEM-DNR; Table 1): 24 µM; IC50 (CCRF-CEM; Table 1): 4.9 µM; SI (selectivity index) (CCRF-CEM; [4]): >7.9; IC50 (K562-TAX; Table 1): 17 µM; IC50 ([1]; Table 1): 7.5 µM; IC50 (DU-145 (prostate cancer); Table 1): 7 µM; IC50 (MRC-5 lung fibroblasts; Table 1): 28 µM; IC50 (U2OS; Table 1): 22 µM; IC50 (HCT 116; Table 1): 22 µM; IC50 ([2]; Table 1): > 50 µM; IC50 ([3]; Table 1): 14 µM |
| C=C(C)[C@@H]1CC[C@]2(C(=O)OCc3ccccc3)CC[C@]3(C)C(CCC4[C@@]5(C)C=C(c6ccc7c(c6)OCCO7)C(=O)C(C)(C)C5CC[C@]43C)C12 (stereo partly drawn) [Compound 10j, Benzyl 2-(1,4-Benzodioxan)-3-oxolupa-1,20(29)-dien-28-oate] | > 50 | > 50 | > 50 | > 50 | > 50 | > 50 | > 50 | > 50 | > 50 | > 1.0 | > 50 | > 50 | – |
| CC1(C)C(=O)C(c2ccoc2)=C[C@@]2(C)C1CC[C@]1(C)C2CCC2C3[C@H]4OC[C@@]3(CCC4(C)C)CC[C@]21C (stereo partly drawn) [Compound 4b, 2-(Furan-3-yl)-19β,28-epoxyolean-1-en-3-one] | > 50 | > 50 | > 50 | > 50 | > 50 | > 50 | > 50 | > 50 | > 50 | > 1.0 | > 50 | > 50 | – |
| C=C(C)[C@@H]1CC[C@]2(C(=O)OCc3ccccc3)CC[C@]3(C)C(CCC4[C@@]5(C)C=C(c6ccc7cn[nH]c7c6)C(=O)C(C)(C)C5CC[C@]43C)C12 (stereo partly drawn) [Compound 10n, Benzyl 2-(Indazol-6-yl)-3-oxolupa-1,20(29)-dien-28-oate] | > 50 | > 50 | > 50 | > 50 | > 50 | > 50 | > 50 | > 50 | > 50 | > 1.0 | > 50 | > 50 | – |
| CC1(C)C(=O)C(c2cccs2)=C[C@@]2(C)C1CC[C@]1(C)C2CCC2C3[C@H]4OC[C@@]3(CCC4(C)C)CC[C@]21C (stereo partly drawn) [Compound 4c, 2-(Thiophene-2-yl)-19β,28-epoxyolean-1-en-3-one] | > 50 | > 50 | > 50 | > 50 | > 50 | > 50 | > 50 | > 50 | > 50 | > 1.0 | > 50 | > 50 | – |
| C=C(C)[C@@H]1CC[C@]2(C(=O)OCc3ccccc3)CC[C@]3(C)C(CCC4[C@@]5(C)C=C(c6ccc7[nH]ccc7c6)C(=O)C(C)(C)C5CC[C@]43C)C12 (stereo partly drawn) [Compound 10m, Benzyl 2-(Indol-5-yl)-3-oxolupa-1,20(29)-dien-28-oate] | > 50 | > 50 | > 50 | > 50 | > 50 | > 50 | > 50 | > 50 | > 50 | > 1.0 | > 50 | > 50 | – |
| CC1(C)C(=O)C(c2ccco2)=C[C@@]2(C)C1CC[C@]1(C)C2CCC2C3[C@H]4OC[C@@]3(CCC4(C)C)CC[C@]21C (stereo partly drawn) [Compound 4a, 2-(Furan-2-yl)-19β,28-epoxyolean-1-en-3-one] | > 50 | > 50 | > 50 | > 50 | > 50 | > 50 | > 50 | > 50 | > 50 | > 1.0 | > 50 | > 50 | – |
| CC1(C)C(=O)C(c2ccc(Cl)s2)=C[C@@]2(C)C1CC[C@]1(C)C2CCC2C3[C@H]4OC[C@@]3(CCC4(C)C)CC[C@]21C (stereo partly drawn) [Compound 4e, 2-(5-Chlorothiophen-2-yl)-19β,28-epoxyolean-1-en-3-one] | > 50 | > 50 | > 50 | > 50 | > 50 | > 50 | > 50 | > 50 | > 50 | > 1.0 | > 50 | > 50 | – |
| C=C(C)[C@@H]1CC[C@]2(C(=O)OCc3ccccc3)CC[C@]3(C)C(CCC4[C@@]5(C)C=C(c6cncnc6)C(=O)C(C)(C)C5CC[C@]43C)C12 (stereo partly drawn) [Compound 10i, Benzyl 2-(5-Pyrimidinyl)-3-oxolupa-1,20(29)-dien-28-oate] | > 50 | > 50 | > 50 | > 50 | > 50 | > 50 | > 50 | > 50 | > 50 | > 1.0 | > 50 | > 50 | – |
